Source: patent US10239825B2, “Ketamine derivatives” (Auckland Uniservices Limited, priority 2013, dated 2019)

How the values were obtained:
[1] = in vivo; cited from earlier work
[2] = system: adult female Sprague-Dawley rats; assay: rat infusion study: loss/recovery of righting reflex and walk (anaesthetic effect); format: in vivo
Experimental: (§1) All animal experiments were conducted at the Ruakura Research Centre, Hamilton, New Zealand, using experimental protocols reviewed and approved by the Ruakura Animal Ethics Committee (ethics ref 12604).
(§2) Following acquisition of baseline physiologic parameters (heart rate, respiratory rate, PWR, and righting reflex (RR)) adult female Sprague-Dawley rats of approximately 350-450 g were put under non-traumatic restraint and the marginal vein of the tail was cannulated. Ketamine or a compound of the invention at 10 mg/ml was administered via a minibore extension tube adequately secured to the tail. Infusions were commenced at a rate (weight-adjusted) to deliver 20 mg/kg/min initially (until the pedal withdrawal reflex score PWR=1), then were reduced to a rate of 6.7 mg/kg/min. Infusion rate was then titrated in an up-and-down fashion to maintain dorsal recumbency and a PWR=1 to 10 minutes before cessation. Three rats were used in each study, with each group of rats also acting as their own ketamine control. The order of study drug administration was determined by prior odds/evens randomisation with a recovery interval of at least one hour afforded between experiments. PWR and RR were recorded at 1 minute intervals throughout. The times from cessation of infusion to return of righting reflex (RRR), and from cessation of infusion to the animals displaying independent locomotion (walk) were recorded.
Loss of Righting Reflex (LRR):
This is primarily used to assess anaesthetic hypnotic effect. Righting reflex is judged absent when the rat fails to right from a position of dorsal recumbency to a position of sternal recumbency on three attempts performed in rapid succession. Dose to LRR is termed effective potency.

[3] = system: adult female Sprague-Dawley rats; assay: rat infusion study: pedal withdrawal reflex PWR = 1 (analgesic effect); format: in vivo
Experimental: as §1, §2
Pedal Withdrawal Reflex (PWR) Scoring:
Nociceptive testing in animals was conducted via 1 second application of constant pressure (firm digital pressure) over the forepaw of the animal. Pedal withdrawal reflex testing is primarily used to assess analgesic effect, and responses are graded accordingly: 0, absent; 1, flicker; 2, moderate withdrawal; 3, fast withdrawal; 4, Fast withdrawal with cry/preceding apnoea (modified from Buitrago, S. et al. J. Amer. Assoc. Lab. Animal. Sci. 2008, 47, 11-17).

[4] = average over the various experiments
[5] = range over the various experiments

## CNC1(c2ccccc2Cl)CCCCC1=O (racemic) [rac-ketamine, (2-o-Chlorophenyl)-2-methylamino-cyclohexanone, reference compound]
[1]
  half-life: 2 to 3 h
[2]; Rattus norvegicus, iv, total drug administered to achieve loss of righting reflex, i.v. infusion, read-out: LRR Dose
  minimal effective dose: 20 ± 1 mg/kg
[2]; [4]
  Time to RRR, Average: 1212 ± 318 s
  Time to achieve LRR, Average: 61 ± 8 s
  Time to walking, Average: 1709 ± 400 s
[2]; average over the various experiments (Table 4 row r6)
  Total dose to LRR, Average: 21 ± 7 mg/kg
[2]; [5]
  Time to RRR, Range: 863 to 2040 s
  Time to achieve LRR, Range: 51 to 75 s
  Time to walking, Range: 1100 to 2340 s
[2]; range over the various experiments (Table 4 row r6)
  Total dose to LRR, Range: 17 to 27 mg/kg
[3]; Rattus norvegicus, iv, total drug administered to achieve PWR = 1, i.v. infusion
  minimal effective dose: 26 ± 1 mg/kg
[3]; [4]
  Time to PWR = 1, Average: 76 ± 9 s
[3]; average over the various experiments (Table 4 row r8, second line so named)
  Total dose to PWR = 1: 26 ± 4 mg/kg
[3]; [5]
  Time to PWR = 1, Range: 60 to 95 s
[3]; range over the various experiments (Table 4 row r8, second line so named)
  Total dose to PWR = 1: 21 to 34 mg/kg
